Assay results from patent US20230330134A1, “METHOD OF PROPHYLAXIS OF CORONAVIRUS AND/OR RESPIRATORY SYNCYTIAL VIRUS INFECTION” (Starpharma Pty Ltd., priority 2020, published 2023).
Read-outs that look alike come from different tables or passages of the source.

Key:
[1] = system: SARS-CoV-2 (2019-nCoV/USA-WA1/2020); assay: Virucidal evaluation with neutralization through sucrose cushion, plaque assay; format: cell-based; settings: for Reduction vs. Virus Control (%) / Reduction vs. Virus Control (Log10± SD): 10 mg/mL
[2] = Hygroscopic assessment (European Pharmacopoeia 5.11); format: physicochemical
Protocol: A hygroscopic assessment was performed as described in European Pharmacopoeia 5.11. Results from the assay are interpreted as follows: deliquescent -sufficient water is absorbed to form a liquid; very hygroscopic - increase in mass is equal to or greater than 15%; hygroscopic - increase in mass is less than 15% and equal to or greater than 2%; slightly hygroscopic - increase in mass is less than 2% and equal to or greater than 0.2% and not hygroscopic - if increase in mass is less than 0.2%, then the compound is not hygroscopic.

[3] = system: Coronavirus strain OC43 (ZeptoMetrix Corp. #0810024CF); settings: final 28.76 mg/mL; for CPE in four replicates, Test: HCT-8
[4] = system: MERS-CoV (HCoV-EMC) Spike-pseudotyped GFP reporter lentiviral particles; format: cell-based
Vero cells = settings: no virus
[5] = system: SARS-CoV-2 (Wuhan-Hu-1) Spike-pseudotyped GFP reporter lentiviral particles; format: cell-based; settings: 10 and 30 mg/mL, added 1 hour prior
SARS-CoV-2 = format: cell-based; settings: 25 mg/mL incubated with 10^5 TCID50/mL virus, 37° C., 60 minutes; titrated on Vero cells
[6] = system: Human Respiratory Syncytial Virus; assay: Antiviral pre-treatment and post-treatment plaque tests (RSV); format: cell-based, Human respiratory syncytial virus (HRSV); settings: Hep-2 cells
Protocol: The concentrations of the Test Product were prepared using approximately 1:3 dilutions from the starting concentration determined following the cytotoxicity test.
The host cell culture was washed with PBS, and 1.0 mL aliquots of test product dilutions added to the cells. Cells were then incubated for 1 hour ± 15 minutes for equilibration. After the incubation, 1.0 mL aliquots of virus was added to the wells and incubated for 1 hour ± 15 minutes for virus adsorption. Following incubation, the mixture was removed and replaced with TM. The plates were then incubated in a CO2 incubator. The plates were incubated until viral plaques in the virus control could be microscopically registered (approximately 5-10 days).
Fixed cells were stained using Crystal Violet stain. Unstained zones of cell lysis (viral plaques) were counted.
The concentrations of the test product were prepared using approximately 1:3 dilutions from the starting concentration determined following the cytotoxicity test.
The host cell culture was washed with PBS, and 1.0 mL aliquots of virus added to the wells and incubated for 1 hour ± 15 minutes for virus adsorption. After incubation, virus inoculum was removed and replaced with aliquots of the test product concentrations in TM. The plates were then incubated in a CO2 incubator. The plates were then incubated until viral plaques in the virus control can be microscopically registered (approximately 5-10 days).
For the cell culture control, intact cell culture monolayers were used as the control of cell viability. The GM was replaced by TM in the cell culture control wells. […] Fixed cells were stained using Crystal Violet stain. Unstained zones of cell lysis (viral plaques) were counted.
Assessment of antiviral properties: The antiviral properties EC50 and/or EC90 was determined using non-linear regression analysis, GraphPad Prism 5.0 software.

[7] = 10^4 pfu/mL, 5 sec incubation, 96 hours post-infection, Vero E6
[8] = 10^4 pfu/mL, 10 sec incubation, 96 hours post-infection, Vero E6
[9] = 10^4 pfu/mL, 30 sec incubation, 16 hours post-infection, Vero E6
[10] = 10^4 pfu/mL, 30 sec incubation, 96 hours post-infection, Vero E6
[11] = 10^4 pfu/mL, 1 min incubation, 16 hours post-infection, Vero E6
[12] = 10^4 pfu/mL, 1 min incubation, 96 hours post-infection, Vero E6
[13] = 10^4 pfu/mL, 5 min incubation, 16 hours post-infection, Vero E6
[14] = 10^4 pfu/mL, 10 min incubation, 96 hours post-infection, Vero E6
[15] = 10^4 pfu/mL, 15 min incubation, 16 hours post-infection, Vero E6
[16] = 10^4 pfu/mL, 15 min incubation, 96 hours post-infection, Vero E6
[17] = 10^5 pfu/mL, 5 sec incubation, 96 hours post-infection, Vero E6
[18] = 10^5 pfu/mL, 10 sec incubation, 96 hours post-infection, Vero E6
[19] = 10^5 pfu/mL, 30 sec incubation, 16 hours post-infection, Vero E6
[20] = 10^5 pfu/mL, 30 sec incubation, 96 hours post-infection, Vero E6
[21] = 10^5 pfu/mL, 1 min incubation, 16 hours post-infection, Vero E6
[22] = 10^5 pfu/mL, 1 min incubation, 96 hours post-infection, Vero E6
[23] = 10^5 pfu/mL, 5 min incubation, 16 hours post-infection, Vero E6
[24] = 10^5 pfu/mL, 10 min incubation, 96 hours post-infection, Vero E6
[25] = 10^5 pfu/mL, 15 min incubation, 16 hours post-infection, Vero E6
[26] = 10^5 pfu/mL, 15 min incubation, 96 hours post-infection, Vero E6
[27] = 10^6 pfu/mL, 5 sec incubation, 96 hours post-infection, Vero E6
[28] = 10^6 pfu/mL, 10 sec incubation, 96 hours post-infection, Vero E6
[29] = 10^6 pfu/mL, 30 sec incubation, 96 hours post-infection, Vero E6
[30] = 10^6 pfu/mL, 1 min incubation, 96 hours post-infection, Vero E6
[31] = 10^6 pfu/mL, 10 min incubation, 96 hours post-infection, Vero E6
[32] = 10^6 pfu/mL, 15 min incubation, 96 hours post-infection, Vero E6

## astodrimer sodium [SPL7013]
Vero E6 cells
  cytotoxicity: not observed
[1]; [7]
  Reduction vs. Virus Control (%): -35.936%
  Reduction vs. Virus Control (Log10± SD): -0.13 ± 0.21 Log10
[1]; [8]
  Reduction vs. Virus Control (%): 14.230%
  Reduction vs. Virus Control (Log10± SD): 0.07 ± 0.29 Log10
[1]; [9]
  Reduction vs. Virus Control (%): 36.904%
  Reduction vs. Virus Control (Log10± SD): 0.20 ± 0.20 Log10
[1]; [10]
  Reduction vs. Virus Control (%): 20.567%
  Reduction vs. Virus Control (Log10± SD): 0.10 ± 0.10 Log10
[1]; [11]
  Reduction vs. Virus Control (%): 99.932%
  Reduction vs. Virus Control (Log10± SD): 3.17 ± 0.12 Log10
[1]; [12]
  Reduction vs. Virus Control (%): 20.567%
  Reduction vs. Virus Control (Log10± SD): 0.10 ± 0.00 Log10
[1]; [13]
  Reduction vs. Virus Control (%): 99.979%
  Reduction vs. Virus Control (Log10± SD): 3.67 ± 0.21 Log10
[1]; [14]
  Reduction vs. Virus Control (%): >99.999%
  Reduction vs. Virus Control (Log10± SD): 5.07 ± 0.25 Log10
[1]; [15]
  Reduction vs. Virus Control (%): 99.990%
  Reduction vs. Virus Control (Log10± SD): 4.00 ± 0.10 Log10
[1]; [16]
  Reduction vs. Virus Control (%): >99.999%
  Reduction vs. Virus Control (Log10± SD): 5.83 ± 0.12 Log10
[1]; [17]
  Reduction vs. Virus Control (%): 53.584%
  Reduction vs. Virus Control (Log10± SD): 0.33 ± 0.21 Log10
[1]; [18]
  Reduction vs. Virus Control (%): 41.566%
  Reduction vs. Virus Control (Log10± SD): 0.23 ± 0.06 Log10
[1]; [19]
  Reduction vs. Virus Control (%): 0.000%
  Reduction vs. Virus Control (Log10± SD): 0.00 ± 0.36 Log10
[1]; [20]
  Reduction vs. Virus Control (%): 49.881%
  Reduction vs. Virus Control (Log10± SD): 0.30 ± 0.17 Log10
[1]; [21]
  Reduction vs. Virus Control (%): 99.767%
  Reduction vs. Virus Control (Log10± SD): 2.63 ± 0.15 Log10
[1]; [22]
  Reduction vs. Virus Control (%): 65.855%
  Reduction vs. Virus Control (Log10± SD): 0.47 ±0.21 Log10
[1]; [23]
  Reduction vs. Virus Control (%): 99.998%
  Reduction vs. Virus Control (Log10± SD): 4.63 ± 0.31 Log10
[1]; [24]
  Reduction vs. Virus Control (%): 99.980%
  Reduction vs. Virus Control (Log10± SD): 3.70 ± 0.26 Log10
[1]; [25]
  Reduction vs. Virus Control (%): 99.998%
  Reduction vs. Virus Control (Log10± SD): 4.60 ± 0.10 Log10
[1]; [26]
  Reduction vs. Virus Control (%): 99.998%
  Reduction vs. Virus Control (Log10± SD): 4.60 ± 0.10 Log10
[1]; [27]
  Reduction vs. Virus Control (%): 20.567%
  Reduction vs. Virus Control (Log10± SD): 0.10 ± 0.20 Log10
[1]; [28]
  Reduction vs. Virus Control (%): 7.388%
  Reduction vs. Virus Control (Log10± SD): 0.03 ± 0.06 Log10
[1]; [29]
  Reduction vs. Virus Control (%): 20.567%
  Reduction vs. Virus Control (Log10± SD): 0.10 ± 0.10 Log10
[1]; [30]
  Reduction vs. Virus Control (%): 53.584%
  Reduction vs. Virus Control (Log10± SD): 0.33 ± 0.12 Log10
[1]; [31]
  Reduction vs. Virus Control (%): 99.369%
  Reduction vs. Virus Control (Log10± SD): 2.20 ± 0.10 Log10
[1]; [32]
  Reduction vs. Virus Control (%): 99.979%
  Reduction vs. Virus Control (Log10± SD): 3.67 ± 0.23 Log10
[1]; 1 to 30 mg/mL, inoculums 10^4, 10^5 and 10^6 pfu/mL, 10 to 15 minutes exposure
  reduction in virus infectivity: > 99.9%
[1]; 10^4 pfu/mL viral inoculum, 10 to 30 mg/mL, 10 to 15 min incubation
  reduction in virus infectivity: > 99.999%
[1]; >10 mg/mL, 10^4 pfu/mL, within as little as 1 minute of exposure, 16 hours post-infection
  SARS-CoV-2 inactivated: > 99.9%
[1]; Vero E6, 10^6 pfu/mL, incubation 15 to 30 minutes, 10 to 30 mg/mL
  reduced infectivity: > 99.999%
[1]; after 1 minute of exposure to the virus
  reduction of infectivity: > 99.9%
[1]; exposure to virus for 30 seconds
  virucidal effect: no detectable virucidal effect
[2]
  hygroscopicity class: very hygroscopic (increase in mass is equal to or greater than 15%)
  increase in mass: 21.97%
[3]; 60 seconds exposure, dilution (-Log10) -6
  CPE in four replicates, Test: 0000
[3]; 60 seconds exposure, dilution (-Log10) -7
  CPE in four replicates, Test: 0000
[3]; 60 seconds exposure
  Log10 Reduction: 0.50 log10
  TCID50 (log10), Test: 5.50 log10
[3]; 60 seconds exposure, listed as SPL7013 aqueous solution
  Percent Reduction: 68.38%
[3]; 60 minutes exposure, dilution (-Log10) -6
  CPE in four replicates, Test: +000
[3]; 60 minutes exposure, dilution (-Log10) -7
  CPE in four replicates, Test: 0000
[3]; 60 minutes exposure
  Log10 Reduction: 0.50 log10
  Percent Reduction: 68.38%
  TCID50 (log10), Test: 5.25 log10
[4]
  binding/infection of Vero E6 cells by spike-pseudotyped lentivirus (GFP-positive cells, FACS): potently inhibited
Vero cells
  TCID50 (log10), CTC (Cytotoxicity Control): 1.50 log10
Vero cells; dilution (-Log10) -2
  CPE in four replicates, CTC (Cytotoxicity Control): 0000
Vero cells; dilution (-Log10) -3
  CPE in four replicates, CTC (Cytotoxicity Control): 0000
Vero cells; dilution (-Log10) -4
  CPE in four replicates, CTC (Cytotoxicity Control): 0000
[5]
  binding/infection of Vero E6 cells by spike-pseudotyped lentivirus (GFP-positive cells, FACS): potently inhibited
SARS-CoV-2
  viricidal activity: stopped all virus growth
[6]; Post Treatment
  EC50, Best Fit Value: 107 µg/mL
  EC90, Best Fit Value: 1159 µg/mL
[6]; PreTreatment
  EC50, Best Fit Value: 45 µg/mL
  EC90, Best Fit Value: 180 µg/mL
